According to US10975412B2, “Method for designing compounds and compositions useful for targeting high stoichiometric complexes to treat conditions, including treatment of viruses, bacteria, and cancers having acquired drug resistance” (priority 2015, dated 2021):
Where two headings read alike, the source gives them in different places.

Target: T1, phi29 DNA packaging motor (Bacillus phage phi29, UniProt P11014)
T1 construct: made in house
Format: biochemical, bacteriophage phi29
Conditions: for inhibition effect in viral assembly: adding 20% of the drugged/mutant component to the wild-type component
Procedure: (§1) Purified components were subjected to in vitro viral assembly assay as described previously. Briefly, 10 μg of purified procapsids were mixed with 100 ng of pRNA in 5 μl of reaction buffer (10 mM ATP, 6 mM 2-mercaptoethanol, and 3 mM spermidine in TMS buffer) at room temperature for 30 min. Purified DNA-gp3 and gp16 were then added and the reaction mixture was incubated at room temperature for one hour to initiate DNA packaging. Finally, the DNA filled procapsids were incubated with 10 μl of gp8.5-9 extract from E. coli containing plasmid pARgp8.5-9 and 20 μl of gp11-14 extract from E. coli to complete the infectious phage assembly.
The newly assembled infectious viruses were plated with inoculated B. subtilis bacteria Su^+44 cells onto a half LB plate covered with top agar. After 12 hour incubation at 37° C., the viral assembly efficiency (plaque-forming unit, PFU) was calculated by counting the formed plaque numbers.
as §1

T1 sequence (P11014 whole entry): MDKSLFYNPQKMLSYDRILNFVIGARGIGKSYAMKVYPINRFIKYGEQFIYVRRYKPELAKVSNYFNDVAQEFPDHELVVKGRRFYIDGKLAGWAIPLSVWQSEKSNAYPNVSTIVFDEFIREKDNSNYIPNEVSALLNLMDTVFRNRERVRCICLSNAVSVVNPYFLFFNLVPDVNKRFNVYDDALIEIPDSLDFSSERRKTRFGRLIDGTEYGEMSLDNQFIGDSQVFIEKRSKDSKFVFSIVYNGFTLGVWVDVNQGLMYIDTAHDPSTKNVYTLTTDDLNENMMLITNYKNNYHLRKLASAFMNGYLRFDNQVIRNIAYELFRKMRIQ

## Nc1ncnc2c1ncn2[C@@H]1O[C@H](COP(=O)(O)OP(=O)(O)OP(O)(O)=S)[C@@H](O)[C@H]1O [γ-S-ATP]
  inhibition effect in viral assembly: almost completely inhibited
Listed as gamma-s-ATP
  inhibition effect in viral assembly: nearly completely inhibited
Targets ATP, pRNA, ATPase gp16, DNA with stoichiometry 10000, 6, 6, 1
  comparison of virus assembly inhibition effect between drugged components: strongest inhibition effect
